Test results as given in patent US11866752B2, “Cysteine polysulfidation and mitochondrial bioenergetics regulated by cysteinyl-tRNA synthetase” (Bio-Xcelerator, Inc., priority 2018, dated 2024).
Blank lines part the entries; values can stand above or below the molecule they belong to.

What was measured:
EcCARS = target: T1, EcCARS (Escherichia coli, UniProt P21888); format: biochemical; conditions: for Persulfide generation by EcCARS with cysteine enantiomer as substrate: substrate enantioselectivity
T1 construct: His tag (inferred from nickel-NTA purification); made in house
T1 sequence (P21888 whole entry): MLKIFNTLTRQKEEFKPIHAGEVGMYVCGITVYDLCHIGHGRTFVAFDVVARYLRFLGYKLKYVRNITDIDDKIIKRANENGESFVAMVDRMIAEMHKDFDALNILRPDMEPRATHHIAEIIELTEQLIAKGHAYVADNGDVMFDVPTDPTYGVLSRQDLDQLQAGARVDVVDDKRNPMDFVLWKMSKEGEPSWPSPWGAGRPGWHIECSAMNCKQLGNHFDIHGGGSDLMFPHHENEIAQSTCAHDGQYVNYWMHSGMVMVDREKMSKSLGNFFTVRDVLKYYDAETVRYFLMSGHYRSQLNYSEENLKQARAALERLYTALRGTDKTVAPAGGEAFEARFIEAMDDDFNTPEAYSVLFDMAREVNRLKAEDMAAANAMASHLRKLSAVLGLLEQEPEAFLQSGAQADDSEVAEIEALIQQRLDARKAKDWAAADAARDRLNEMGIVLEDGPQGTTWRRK
From the text: The data are means ±s.d. […] Data represent means ±s.d.

ADH5 = target: T2, ADH5 (Homo sapiens, UniProt P11766); test: HPE-IAM labeling of ADH5 cysteine polysulfides, LC-ESI-MS/MS; conditions: treatment of ADH5
T2 construct: made in house; host or cells: Escherichia coli
T2 sequence (P11766 whole entry, species assumed): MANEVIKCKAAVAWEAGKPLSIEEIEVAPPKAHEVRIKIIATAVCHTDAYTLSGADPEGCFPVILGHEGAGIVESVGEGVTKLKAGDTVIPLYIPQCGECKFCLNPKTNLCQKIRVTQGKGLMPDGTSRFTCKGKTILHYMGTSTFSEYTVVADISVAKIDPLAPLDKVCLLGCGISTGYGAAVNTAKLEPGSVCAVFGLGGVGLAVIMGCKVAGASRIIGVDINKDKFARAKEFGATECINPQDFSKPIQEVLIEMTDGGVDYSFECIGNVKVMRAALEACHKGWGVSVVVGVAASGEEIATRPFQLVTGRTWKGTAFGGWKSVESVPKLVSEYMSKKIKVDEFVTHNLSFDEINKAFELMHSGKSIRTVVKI
From the text: Redox property of cysteine and protein polysulfides. CysSSHhas unique redox-active properties that distinguishes it from the cysteine (CysSH) thiol. […] Moreover, dialkylpolysulfides can also be nucleophilic and electrophile-mediated cleavage of S—S bonds is established28. The unique properties and reactivity of polysulfides allowed us to develop several analytical techniques aimed at determining endogenous production of LMW and protein-bound polysulfides (Supplementary FIG. 3). We first developed a convenient method for selective detection of polysulfidated proteins: the biotin-polyethylene glycol (PEG)-conjugated maleimide (biotin-PEG-MAL) labeling gel shift assay (PMSA; Supplementary FIG. 3a)15. […] We then used liquid chromatography-electrospray ionizationtandem mass spectrometry (LC-ESI-MS/MS) with 0-(4-hydroxyphenyl) ethyl iodoacetamide (HPE-IAM) as a trapping agent to identify and precisely quantify various hydropolysulfides, and also to verify the site specificity of polysulfidation as well as the number of sulfur atoms involved in proteins (Supplementary FIG. 5, and Supplementary Table 2). […]

mouse CARS1 = target: T3, mouse CARS1 (Mus musculus, UniProt Q9ER72); test: CysSSH and CysSSSH biosynthesis by recombinant mouse CARS1
T3 sequence (Q9ER72 1-748 isoform Q9ER72-2): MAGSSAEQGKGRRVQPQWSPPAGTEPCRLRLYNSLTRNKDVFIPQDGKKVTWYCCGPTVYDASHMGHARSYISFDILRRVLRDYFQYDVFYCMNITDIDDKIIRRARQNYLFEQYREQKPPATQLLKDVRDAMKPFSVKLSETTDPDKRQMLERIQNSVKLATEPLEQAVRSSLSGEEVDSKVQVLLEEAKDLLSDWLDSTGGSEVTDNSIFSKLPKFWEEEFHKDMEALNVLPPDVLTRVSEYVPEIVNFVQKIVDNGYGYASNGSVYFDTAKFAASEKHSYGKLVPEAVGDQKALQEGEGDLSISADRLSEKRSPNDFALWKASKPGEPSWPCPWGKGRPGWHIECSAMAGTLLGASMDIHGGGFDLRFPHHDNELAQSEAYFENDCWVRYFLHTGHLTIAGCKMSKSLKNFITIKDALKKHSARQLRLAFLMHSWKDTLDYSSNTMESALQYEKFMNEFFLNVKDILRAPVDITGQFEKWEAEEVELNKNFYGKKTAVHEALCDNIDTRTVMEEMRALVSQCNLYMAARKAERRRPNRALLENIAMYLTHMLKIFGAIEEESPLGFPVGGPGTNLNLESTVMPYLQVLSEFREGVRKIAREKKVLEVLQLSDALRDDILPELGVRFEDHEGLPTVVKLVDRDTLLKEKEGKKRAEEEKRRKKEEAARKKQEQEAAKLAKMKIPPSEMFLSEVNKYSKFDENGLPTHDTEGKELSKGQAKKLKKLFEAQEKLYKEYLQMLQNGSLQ

human CARS2 = target: T4, human CARS2 (Homo sapiens, UniProt Q9HA77); test: CysSSH and CysSSSH biosynthesis by recombinant human CARS2
T4 sequence (Q9HA77 1-564): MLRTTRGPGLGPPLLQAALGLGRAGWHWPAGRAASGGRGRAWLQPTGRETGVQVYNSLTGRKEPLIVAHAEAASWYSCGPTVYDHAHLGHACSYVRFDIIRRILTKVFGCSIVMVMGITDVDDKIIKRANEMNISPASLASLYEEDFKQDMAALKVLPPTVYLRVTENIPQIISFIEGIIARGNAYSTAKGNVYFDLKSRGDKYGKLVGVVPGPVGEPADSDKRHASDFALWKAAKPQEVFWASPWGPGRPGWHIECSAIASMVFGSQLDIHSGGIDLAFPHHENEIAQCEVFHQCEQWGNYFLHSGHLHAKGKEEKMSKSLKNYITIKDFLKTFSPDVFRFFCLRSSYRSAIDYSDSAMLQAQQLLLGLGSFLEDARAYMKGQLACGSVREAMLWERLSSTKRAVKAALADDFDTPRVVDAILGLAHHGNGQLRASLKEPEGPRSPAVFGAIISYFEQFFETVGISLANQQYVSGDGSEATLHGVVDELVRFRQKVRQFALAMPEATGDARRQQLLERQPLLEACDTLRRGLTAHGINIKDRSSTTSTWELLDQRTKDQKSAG

[1] = system: mitochondrial ETC in HEK293T cells; test: Effect of suppression of ETC on metabolic profiles of CysSSH; format: cell-based, human; conditions: HPE-IAM labeling LC-MS/MS
Method: Effect of suppression of ETC on metabolic profiles of CysSSH. The mito-chondrial ETC in HEK293T cells was inhibited either by a complex III inhibitor, antimycin A, or by elimination of mitochondrial DNA (mtDNA) induced by ethidium bromide. For the direct but partial ETC (complex III) inhibition, WT and CARS2 KO cells were treated with various concentrations of antimycin A for 1 h, followed by methanol extraction for measurement of CysSSH and its related sulfide derivatives by HPE-IAM labeling LC-ESI-MS/MS analysis as described earlier. […] The quantity of each sulfide produced from CARS2 in the cells was determined by subtracting the amount of each sulfide in CARS2 KO HEK293T cells from that in the WT cells, after quantification of each metabolite via HPE-IAM labeling LC-MS/MS analysis. Changes in the amounts of CysSSH (ACysSSH) and HS— (AHS-) induced by complex III inhibition by antimycin A or by mtDNA elimination in WT and CARS2 KO HEK293T cells were then calculated.

CSE = test: Kinetic parameters of recombinant CSE with L-cystine as substrate; format: biochemical, rat and human

Molecule: Nc1ncnc2c1ncn2[C@@H]1O[C@H](COP(=O)(O)OP(=O)(O)OP(=O)(O)O)[C@@H](O)[C@H]1O [ATP]
Dependence of persulfide synthase activity of EcCARS on added factor (EcCARS): but not on ATP

Molecule: N[C@H](CS)C(=O)O [D-cysteine]
Persulfide generation by EcCARS with cysteine enantiomer as substrate (EcCARS): but not D-cysteine demonstrated activity

Molecule: N[C@@H](CS)C(=O)O [L-cysteine]
Persulfide generation by EcCARS with cysteine enantiomer as substrate (EcCARS): demonstrated activity

Molecule: CCN1C(=O)C=CC1=O [N-ethylmaleimide]
HPE-IAM labeling of CysSH and CysSSH/SSSH of ADH5 (ADH5): completely abrogated

Molecule: Cc1ncc(COP(=O)(O)O)c(C=O)c1O [pyridoxal phosphate]
Dependence of persulfide synthase activity of EcCARS on added factor (EcCARS): depended partly
Dependence of CysS-(S)n-H producing activity on PLP (mouse CARS1; mouse CARS1): depended on the presence of PLP
Dependence of CysS-(S)n-H producing activity on PLP (human CARS2; human CARS2): depended on the presence of PLP
Cysteine persulfide production in reaction mixture of cysteine and PLP alone (human CARS2; no enzyme, no >100 μM PLP): No appreciable cysteine persulfide production was detected

Molecule: antimycin A
Change in CysSSH [1]: significant increase
Change in HS- production [1]: reduction

CysS-(S)n-H producing activity (mouse CARS1; recombinant mouse CARS1): strong
B1: mouse CARS1: recombinant cytosolic cysteinyl-tRNA synthetase (protein, UniProt Q9ER72 2-831, looked up)
Cysteine--tRNA ligase, …: AGSSAEQAADYRSILSISDEAARVQALDQHLSTRSYIQGYSLSQADVDVFRQLSAPPADSRLFHVARWFRHIEALLGGPQGRDEPCRLQASKGRRVQPQWSPPAGTEPCRLRLYNSLTRNKDVFIPQDGKKVTWYCCGPTVYDASHMGHARSYISFDILRRVLRDYFQYDVFYCMNITDIDDKIIRRARQNYLFEQYREQKPPATQLLKDVRDAMKPFSVKLSETTDPDKRQMLERIQNSVKLATEPLEQAVRSSLSGEEVDSKVQVLLEEAKDLLSDWLDSTGGSEVTDNSIFSKLPKFWEEEFHKDMEALNVLPPDVLTRVSEYVPEIVNFVQKIVDNGYGYASNGSVYFDTAKFAASEKHSYGKLVPEAVGDQKALQEGEGDLSISADRLSEKRSPNDFALWKASKPGEPSWPCPWGKGRPGWHIECSAMAGTLLGASMDIHGGGFDLRFPHHDNELAQSEAYFENDCWVRYFLHTGHLTIAGCKMSKSLKNFITIKDALKKHSARQLRLAFLMHSWKDTLDYSSNTMESALQYEKFMNEFFLNVKDILRAPVDITGQFEKWEAEEVELNKNFYGKKTAVHEALCDNIDTRTVMEEMRALVSQCNLYMAARKAERRRPNRALLENIAMYLTHMLKIFGAIEEESPLGFPVGGPGTNLNLESTVMPYLQVLSEFREGVRKIAREKKVLEVLQLSDALRDDILPELGVRFEDHEGLPTVVKLVDRDTLLKEKEGKKRAEEEKRRKKEEAARKKQEQEAAKLAKMKIPPSEMFLSEVNKYSKFDENGLPTHDTEGKELSKGQAKKLKKLFEAQEKLYKEYLQMLQNGSLQ

B2: CSE: cystathionine γ-lyase (cystathionase), recombinant rat and human (protein, UniProt P32929 1-405, looked up)
Cystathionine gamma-lyase: MQEKDASSQGFLPHFQHFATQAIHVGQDPEQWTSRAVVPPISLSTTFKQGAPGQHSGFEYSRSGNPTRNCLEKAVAALDGAKYCLAFASGLAATVTITHLLKAGDQIICMDDVYGGTNRYFRQVASEFGLKISFVDCSKIKLLEAAITPETKLVWIETPTNPTQKVIDIEGCAHIVHKHGDIILVVDNTFMSPYFQRPLALGADISMYSATKYMNGHSDVVMGLVSVNCESLHNRLRFLQNSLGAVPSPIDCYLCNRGLKTLHVRMEKHFKNGMAVAQFLESNPWVEKVIYPGLPSHPQHELVKRQCTGCTGMVTFYIKGTLQHAEIFLKNLKLFTLAESLGGFESLAELPAIMTHASVLKNDRDVLGISDTLIRLSVGLEDEEDLLEDLDQALKAAHPPSGSHS
modifications: also rat
notes: cystathionine γ-lyase (cystathionase), recombinant rat and human
Km (CSE): > 200 µM
